Target: T1, His6-TEV-PPARγ-(234-505) (Homo sapiens, UniProt P37231)
T1 construct: The His6-TEV-PPARγ-(234-505) protein for assay was expressed and purified; TEV cleavage site (N); made in house
T1 sequence (P37231 234-505): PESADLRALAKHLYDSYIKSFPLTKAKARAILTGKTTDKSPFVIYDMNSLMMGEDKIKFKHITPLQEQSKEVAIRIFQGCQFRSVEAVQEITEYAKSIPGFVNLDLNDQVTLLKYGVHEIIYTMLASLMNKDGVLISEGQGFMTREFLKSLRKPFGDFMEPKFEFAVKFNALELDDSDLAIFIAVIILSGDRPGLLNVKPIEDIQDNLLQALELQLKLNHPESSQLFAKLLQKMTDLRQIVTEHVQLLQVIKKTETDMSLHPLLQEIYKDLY
Assay: TR-FRET Assay to Measure Co-R Peptide Recruitment to PPARγ
Format: biochemical
Settings: Co-R peptide recruitment to PPARγ; read-out: TR-FRET AC50
Method in brief: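 Corepressor recruitment is measured by adding terbium-labeled anti-His antibody and FITC SMRT-ID2 peptide, at 5 and 200 nM final, after a 20-minute room-temperature protein–compound incubation. After one further hour, signal is converted to percent response between DMSO and 500 nM T0070907 wells.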

AC50, > 1000 nM:
CC1(NC(=O)C2CCN(C(=O)c3cc(-c4ccncc4)[nH]n3)CC2)CCOCC1 [N-(4-methyloxan-4-yl)-1-[5-(pyridin-4-yl)-1H-pyrazole-3-carbonyl]piperidine-4-carboxamide]
COc1cc(-c2cc(C(=O)N3CCC(C(=O)NC4CCC(F)(F)CC4)CC3)n[nH]2)ccn1 [N-(4,4-difluorocyclohexyl)-1-[5-(2-methoxypyridin-4-yl)-1H-pyrazole-3-carbonyl]piperidine-4-carboxamide]
CCC1(CNC(=O)C2CCN(C(=O)c3cc(-c4cc(OC)ncc4Cl)[nH]n3)CC2)COC1 [1-[5-(5-chloro-2-methoxypyridin-4-yl)-1H-pyrazole-3-carbonyl]-N-[(3-ethyloxetane-3-yl)methyl]piperidine-4-carboxamide]
O=C(c1cc(-c2ccncc2)[nH]n1)N1CCC(C(=O)N2CCN(c3ccccc3)CC2)CC1 [1-phenyl-4-{1-[5-(pyridin-4-yl)-1H-pyrazole-3-carbonyl]piperidine-4-carbonyl}piperazine]
CC1CCC(NC(=O)C2CCN(C(=O)c3cc(-c4ccncc4F)[nH]n3)CC2)CC1 (stereo not shown) [1-[5-(3-fluoropyridin-4-yl)-1H-pyrazole-3-carbonyl]-N-(4-methylcyclohexyl)piperidine-4-carboxamide]
CC(C)(C)c1ccc(CNC(=O)C2CCN(C(=O)c3cc(-c4ccncc4)[nH]n3)CC2)cn1 [N-[(6-tert-butylpyridine-3-yl)methyl]1-[5-(pyridin-4-yl)-1H-pyrazole-3-carbonyl]piperidine-4-carboxamide]
COc1cc(-c2cc(C(=O)N3CC[C@H](C(=O)N[C@@H]4CN(c5ccc(C)nc5)C[C@@H]4F)CC34CC4)n[nH]2)c(F)cn1 [(7S)—N-[(3R,4S)-4-fluoro-1-(6-methylpyridin-3-yl)pyrrolidin-3-yl]-4-[5-(5-fluoro-2-methoxypyridin-4-yl)-1H-pyrazole-3-carbonyl]-4-azaspiro[2.5]octane-7-carboxamide]
COc1cc(-c2cc(C(=O)N3CCC(C(=O)O)CC3)n[nH]2)c(Cl)cn1 [1-[5-(5-chloro-2-methoxypyridin-4-yl)-1H-pyrazole-3-carbonyl]piperidine-4-carboxylic acid]
CC(C)CCNC(=O)C1CCN(C(=O)c2cc(-c3ccncc3)[nH]n2)CC1 [N-(3-methylbutyl)-1-[5-(pyridin-4-yl)-1H-pyrazole-3-carbonyl]piperidine-4-carboxamide]
COc1cc(-c2cc(C(=O)N3CCC(C(=O)N(C)C4CCC(C)CC4)CC3)n[nH]2)c(Cl)cn1 (stereo not shown) [1-[5-(5-chloro-2-methoxypyridin-4-yl)-1H-pyrazole-3-carbonyl]-N-methyl-N-(4-methylcyclohexyl)piperidine-4-carboxamide]
COc1cc(-c2cc(C(=O)N3CCC(C(=O)NCC4OCCCO4)CC3)n[nH]2)c(Cl)cn1 [1-[5-(5-chloro-2-methoxypyridin-4-yl)-1H-pyrazole-3-carbonyl]-N-[(1,3-dioxan-2-yl)methyl]piperidine-4-carboxamide]
O=C(Nc1ccc(Cl)cc1)C1CCCN(C(=O)c2cc(-c3ccncc3)[nH]n2)C1 (stereo not shown) [N-(4-chlorophenyl)-1-[5-(pyridin-4-yl)-1H-pyrazole-3-carbonyl]piperidine-3-carboxamide]
COC1CCC(NC(=O)C2CCN(C(=O)c3cc(-c4ccncc4)[nH]n3)CC2)CC1 (stereo not shown) [N-(4-methoxycyclohexyl)-1-[5-(pyridin-4-yl)-1H-pyrazole-3-carbonyl]piperidine-4-carboxamide]
COc1cc(-c2cc(C(=O)N3CCC(C(=O)Nc4noc5cccc(F)c45)CC3)n[nH]2)c(Cl)cn1 [1-[5-(5-chloro-2-methoxypyridin-4-yl)-1H-pyrazole-3-carbonyl]-N-(4-fluoro-1,2-benzoxazol-3-yl)piperidine-4-carboxamide]
COc1cc(-c2cc(C(=O)N3CCC(C(=O)Nc4ncc(C(C)C)s4)CC3)n[nH]2)c(Cl)cn1 [1-[5-(5-chloro-2-methoxypyridin-4-yl)-1H-pyrazole-3-carbonyl]-N-[5-(propan-2-yl)-1,3-thiazol-2-yl]piperidine-4-carboxamide]
COc1cc(-c2cc(C(=O)N3CCC(C(=O)NC45COC(C)(C4)C5)CC3)n[nH]2)c(Cl)cn1
O=C(c1cc(-c2ccncc2)[nH]n1)N1CCC(C(=O)N2CCc3ccccc3C2)CC1 [2-{1-[5-(pyridin-4-yl)-1H-pyrazole-3-carbonyl]piperidine-4-carbonyl}-1,2,3,4-tetrahydroisoquinoline]
COc1cc(-c2cc(C(=O)N3CCC(C(=O)NCC4(O)CCC4)CC3)n[nH]2)c(Cl)cn1 [1-[5-(5-chloro-2-methoxypyridin-4-yl)-1H-pyrazole-3-carbonyl]-N-[(1-hydroxycyclobutyl)methyl]piperidine-4-carboxamide]
COc1cc(-c2cc(C(=O)N3CCC(C(=O)NCc4cc(C)on4)CC3)n[nH]2)c(Cl)cn1 [1-[5-(5-chloro-2-methoxypyridin-4-yl)-1H-pyrazole-3-carbonyl]-N-[(5-methyl-1,2-oxazol-3-yl)methyl]piperidine-4-carboxamide]
COc1cc(-c2cc(C(=O)N3CCC(C(=O)NCc4ncc(C(F)F)cn4)CC3)n[nH]2)c(Cl)cn1 [1-[5-(5-chloro-2-methoxypyridin-4-yl)-1H-pyrazole-3-carbonyl]-N-{[5-(difluoromethyl)pyrimidin-2-yl]methyl}piperidine-4-carboxamide]
COc1ccc(NC(=O)C2CCN(C(=O)c3cc(-c4ccncc4)[nH]n3)CC2)cc1 [N-(4-methoxyphenyl)-1-[5-(pyridin-4-yl)-1H-pyrazole-3-carbonyl]piperidine-4-carboxamide]
N#C[C@H]1CC[C@@H](NC(=O)C2CCN(C(=O)c3cc(-c4ccncc4)[nH]n3)CC2)CC1
O=C(NCC1CC1)C1CCN(C(=O)c2cc(-c3ccncc3)[nH]n2)CC1 [N-(cyclopropylmethyl)-1-[5-(pyridin-4-yl)-1H-pyrazole-3-carbonyl]piperidine-4-carboxamide]
O=C(O)COc1cc(NC(=O)C2CCN(C(=O)c3cc(-c4ccncc4)[nH]n3)CC2)ccc1Cl [2-(2-chloro-5-{1-[5-(pyridin-4-yl)-1H-pyrazole-3-carbonyl]piperidine-4-amido}phenoxy)acetic acid]
COc1cc(-c2cc(C(=O)N3CCC(C(=O)NCc4nnc5ccc(C(F)(F)F)cn45)CC3)n[nH]2)c(Cl)cn1 [1-[5-(5-chloro-2-methoxypyridin-4-yl)-1H-pyrazole-3-carbonyl]-N-{[6-(trifluoromethyl)-[1,2,4]triazolo[4,3-a]pyridin-3-yl]methyl}piperidine-4-carboxamide]
O=C(NCCN1CCCC1)C1CCN(C(=O)c2cc(-c3ccncc3)[nH]n2)CC1 [1-[5-(pyridin-4-yl)-1H-pyrazole-3-carbonyl]-N-[2-(pyrrolidin-1-yl)ethyl]piperidine-4-carboxamide]
CC[C@H](NC(=O)C1CCN(C(=O)c2cc(-c3ccncc3)[nH]n2)CC1)c1ccccc1 [N-[(1S)-1-phenylpropyl]-1-[5-(pyridin-4-yl)-1H-pyrazole-3-carbonyl]piperidine-4-carboxamide]
COc1cc(-c2cc(C(=O)N3CCC(C(=O)NCC4CC(=O)N(C)C4)CC3)n[nH]2)c(Cl)cn1 (stereo not shown) [1-[5-(5-chloro-2-methoxypyridin-4-yl)-1H-pyrazole-3-carbonyl]-N-[(1-methyl-5-oxopyrrolidin-3-yl)methyl]piperidine-4-carboxamide]
COc1cc(-c2cc(C(=O)N3CCC(C(=O)NCc4ccn5c(C)c(C)nc5c4)CC3)n[nH]2)c(Cl)cn1 [1-[5-(5-chloro-2-methoxypyridin-4-yl)-1H-pyrazole-3-carbonyl]-N-({2,3-dimethylimidazo[1,2-a]pyridin-7-yl}methyl)piperidine-4-carboxamide]
CC(C)(C)c1csc(CNC(=O)C2CCN(C(=O)c3cc(-c4ccncc4)[nH]n3)CC2)n1 [N-[(4-tert-butyl-1,3-thiazol-2-yl)methyl]-1-[5-(pyridin-4-yl)-1H-pyrazole-3-carbonyl]piperidine-4-carboxamide]
COc1cc(-c2cc(C(=O)N3CCC(C(=O)NC4COC(C)OC4)CC3)n[nH]2)c(F)cn1 (stereo not shown) [1-[5-(5-fluoro-2-methoxypyridin-4-yl)-1H-pyrazole-3-carbonyl]-N-(2-methyl-1,3-dioxan-5-yl)piperidine-4-carboxamide]
O=C(NCc1cccc(Cl)c1)C1CCN(C(=O)c2cc(-c3ccncc3)[nH]n2)CC1 [N-[(3-chlorophenyl)methyl]-1-[5-(pyridin-4-yl)-1H-pyrazole-3-carbonyl]piperidine-4-carboxamide]
CCCN(C)C(=O)C1CCN(C(=O)c2cc(-c3ccncc3)[nH]n2)CC1 [N-methyl-N-propyl-1-[5-(pyridin-4-yl)-1H-pyrazole-3-carbonyl]piperidine-4-carboxamide]
COc1cc(-c2cc(C(=O)N3CCC(C(=O)NC4CCC5(CCCN5)CC4)CC3)n[nH]2)c(F)cn1 (stereo not shown)
